# Like-named read-outs stand apart in the source and are kept apart here.
# Legend:
# human TRPA1 = biological target: T1, human TRPA1 (Homo sapiens, UniProt O75762, K186N/R3C/R58T); test: Intracellular calcium (Fluo-4, FLIPR) activation of TRPA1 cells by GRAS compounds; format: cell-based; conditions: relative to AITC 30 μM; for activation at 1000 µM / A1 activation, % of agonist value: 1 mM; for activation at 1000 µM / activation at 100 µM: read-out: A1 activation, % of agonist value;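 as to all read-outs here: TRPA1-expressing cells, fluorescence read on a FLIPR Tetra (ex 488 nm, em 514 nm) every 2 s for 10 min after compound addition, baseline subtracted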
# T1 construct: expressed in transfected cells; pcDNA3 control cells
# TRPA1V1 = test: Intracellular calcium (Fluo-4, FLIPR) activation of TRPA1V1 cells (co-expressing TRPA1 and TRPV1) by GRAS compounds; format: cell-based, human; conditions: relative to AITC 30 μM;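 also: HEK293 cells co-expressing TRPA1 and TRPV1, fluorescence read at 488/514 nm after baseline subtraction, recorded every 2 s over 10 min, ionomycin 10 µM and buffer as controls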
# T1 sequence (O75762 whole entry R3C/R58T/K186N): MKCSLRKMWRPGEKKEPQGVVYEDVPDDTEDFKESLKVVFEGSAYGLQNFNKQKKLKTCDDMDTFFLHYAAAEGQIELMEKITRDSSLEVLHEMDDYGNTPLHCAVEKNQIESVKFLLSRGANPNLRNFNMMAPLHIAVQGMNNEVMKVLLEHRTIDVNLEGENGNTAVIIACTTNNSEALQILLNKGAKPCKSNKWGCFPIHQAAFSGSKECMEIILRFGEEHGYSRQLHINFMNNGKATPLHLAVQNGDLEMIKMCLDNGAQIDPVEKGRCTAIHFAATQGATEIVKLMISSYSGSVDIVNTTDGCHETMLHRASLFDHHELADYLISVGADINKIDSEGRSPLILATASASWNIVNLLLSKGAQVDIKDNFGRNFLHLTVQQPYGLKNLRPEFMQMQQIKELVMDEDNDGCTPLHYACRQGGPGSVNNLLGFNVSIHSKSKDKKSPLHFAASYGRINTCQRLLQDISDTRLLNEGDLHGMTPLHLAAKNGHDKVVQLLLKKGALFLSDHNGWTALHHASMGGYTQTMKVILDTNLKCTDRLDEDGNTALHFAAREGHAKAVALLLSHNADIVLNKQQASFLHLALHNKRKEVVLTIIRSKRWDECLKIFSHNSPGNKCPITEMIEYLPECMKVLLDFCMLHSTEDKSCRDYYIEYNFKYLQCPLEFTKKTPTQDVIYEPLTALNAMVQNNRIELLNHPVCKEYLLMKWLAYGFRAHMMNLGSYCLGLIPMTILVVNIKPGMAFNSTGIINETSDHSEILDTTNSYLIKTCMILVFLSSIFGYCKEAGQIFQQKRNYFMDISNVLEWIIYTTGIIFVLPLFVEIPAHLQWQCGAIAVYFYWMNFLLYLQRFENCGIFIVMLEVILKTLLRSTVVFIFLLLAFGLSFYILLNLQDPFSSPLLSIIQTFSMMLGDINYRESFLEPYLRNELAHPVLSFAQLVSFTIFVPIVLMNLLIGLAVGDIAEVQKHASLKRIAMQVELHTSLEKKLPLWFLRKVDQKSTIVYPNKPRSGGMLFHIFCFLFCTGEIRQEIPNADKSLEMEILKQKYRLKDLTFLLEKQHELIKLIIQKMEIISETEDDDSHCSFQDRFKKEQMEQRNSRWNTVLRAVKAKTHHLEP
Structure (SMILES),activation at 1000 µM (human TRPA1; Table 1(c)) [%],"A1V1 activation, % of agonist value (TRPA1V1; Table 1(c), 1 mM) [%]","A1 activation, % of agonist value (human TRPA1; Table 1(c)) [%]",also measured
COC(=O)c1ccc(OC)cc1 [Methyl p-anisate],57.5,66.24,,
C/C=C/C=C/C(=O)OC [Methyl sorbate],76,81.15,,"activation at 1000 µM (human TRPA1; Table 1(e)): 46.4%; A1V1 activation, % of agonist value (TRPA1V1; Table 1(e), 1 mM): 83.3%"
COC(=O)c1ccc(O)cc1 [Methylparaben],62,66.33,,
"COC(=O)c1ccccc1N(C)C [N,N-Dimethylanthranilic acid methyl ester]",74.2,77.15,,
CCCCCCCCCO [Nonyl alcohol],71.1,69.4,,
COc1ccccc1C=CC=O [O-Methoxycinnamaldehyde],,55.99,65.3,
CC(=O)OCc1ccccc1C [O-Methylbenzyl acetate],,77.24,87.22,
Cc1ccccc1OC(=O)C(C)C [O-Tolyl isobutyrate],,57.76,49.37,
CCCCCCCCOC(=O)c1ccco1 [Octyl 2-furoate],,,,"activation at 1000 µM (human TRPA1; Table 1(d)): 54.3%; A1V1 activation, % of agonist value (TRPA1V1; Table 1(d), 1 mM): 40.60%"
S=C=NCCc1ccccc1 [Phenethyl isothiocyanate],92,81.46,,
CC(C)C(=O)OCCOc1ccccc1 [Phenoxyethyl isobutyrate],,,,"activation at 1000 µM (human TRPA1; Table 1(d)): 81%; A1V1 activation, % of agonist value (TRPA1V1; Table 1(d), 1 mM): 53.9%"
CCC(=O)OCCOc1ccccc1 [Phenoxyethyl propionate],65.5,79.34,,
"CSCCCN=C=S [Propane, 1-isothiocyanato-3-(methylthio)-]",,,,"activation at 1000 µM (human TRPA1; Table 1(e)): 81.6%; A1V1 activation, % of agonist value (TRPA1V1; Table 1(e), 1 mM): 114.6%"
CCCOC(=O)c1ccccc1 [Propyl benzoate],,,,"activation at 1000 µM (human TRPA1; Table 1(d)): 40.7%; A1V1 activation, % of agonist value (TRPA1V1; Table 1(d), 1 mM): 25.7%"
CC1=C(/C=C/C(C)=C/C=C/C(C)=C/CO)C(C)(C)CCC1 [Retinol],80,67.79,,
C=C(C)CCC[C@H](C)CCO [Rhodinol],,,,"activation at 1000 µM (human TRPA1; Table 1(d)): 116%; A1V1 activation, % of agonist value (TRPA1V1; Table 1(d), 1 mM): 78.75%"
C=C(C)CCCC(C)CCOC(C)=O (stereo not drawn) [Rhodinyl acetate],,89.69,89.06,
C=C(C)CCC[C@H](C)CCOC(=O)CC(C)C [Rhodinyl isovalerate],,48.29,54.92,
C=C(C)CCC[C@H](C)CCOC(=O)CC [Rhodinyl propionate],,86.44,75.56,
CC1=C(C=O)C(C)(C)CC=C1 [Safranal],,74.5,73,
O=Cc1ccccc1O [Salicylaldehyde],66.9,65.6,,
Cc1c[nH]c2ccccc12 [Skatole],116,102.9,,"activation at 100 µM (human TRPA1; Table 1(c)): 66.2%; A1V1 activation, % of agonist value (TRPA1V1; Table 1(c), 100 μM (*)): 71.4%"
OC[C@H]1O[C@@](CO)(O[C@H]2O[C@H](CO)[C@@H](O)[C@H](O)[C@H]2O)[C@@H](O)[C@@H]1O [Sucrose],84.1,80.86,,
CC1=CCCC(C)(C)C12CCC(C)O2 (stereo not drawn) [Theaspirane],,84,99,
CC/C=C/C=O [Trans-2-Pentenal],80.9,68.62,,
CCCCCCCCC/C=C/C=O [Trans-2-dodecenal],,,,"activation at 100 µM (human TRPA1; Table 1(c)): 79.1%; A1V1 activation, % of agonist value (TRPA1V1; Table 1(c), 100 μM (*)): 66%"
COc1ccc(/C=C/C=O)cc1 [Trans-p-methoxy cinnamaldehyde],,,,"activation at 1000 µM (human TRPA1; Table 1(e)): 58.8%; A1V1 activation, % of agonist value (TRPA1V1; Table 1(e), 1 mM): 75.99%"
CC1=CC(C)C(C=O)CC1 (stereo not drawn) [Trivertal],,36.46,35.43,
